Legend:
Format in all cases: in vivo
[1] = system: Canada horseweed (Conyza canadensis); test: Test E pre-/postemergence plant response; conditions: Postemergence, scale 0 to 100
Outline: (§1)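 Plant response was judged by eye relative to controls, 0 meaning no effect and 100 complete control, after 14 to 21 days under greenhouse conditions. Compound was formulated in a non-phytotoxic solvent mixture with surfactant.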

[2] = system: common ragweed (Ambrosia elation); test: Test E pre-/postemergence plant response; conditions: scale 0 to 100
Outline: as §1

[3] = system: field bindweed (Convolvulus arvensis); test: Test E pre-/postemergence plant response; conditions: scale 0 to 100
Outline: as §1

[4] = system: spanishneedles (Bidens bipinnata); test: Test E pre-/postemergence plant response; conditions: scale 0 to 100
Outline: as §1

[5] = system: barnyardgrass (Echinochloa crus-galli); test: Test D flooded paddy plant response; conditions: Flood, scale 0 to 100 (0 no effect, 100 complete control), 21 days
From the text: (§2) Three plastic pots (ca. 16-cm diameter) for each application rate were partially filled with sterilized Tama silt loam soil comprising a 35:50:15 ratio of sand, silt and clay and 2.6% organic matter. Separate plantings for each of the three pots were as follows. Seeds from the U.S. of ducksalad (Heteranthera limosa), umbrella sedge (Cyperus difformis) and purple redstem (Ammannia coccinea), were planted into one 16-cm pot for each rate. Seeds from the U.S. of rice flatsedge (Cyperus iria), bearded (Brdd.) sprangletop (Leptochloa fascicularis), one stand of 9 or 10 water-seeded rice seedlings (Oryza sativa cv. ‘Japonica—M202’), and one stand of 6 transplanted rice seedlings (Oryza sativa cv. ‘Japonica—M202’) were planted into one 16-cm pot for each rate. Seeds from the U.S. of barnyardgrass (Echinochloa crus-galli), late watergrass (Echinochloa oryzicola), early watergrass (Echinochloa oryzoides) and junglerice (Echinochloa colona) were planted into one 16-cm pot for each rate. Plantings were sequential so that crop and weed species were at the 2.0 to 2.5-leaf stage at time of treatment.
(§3) Potted plants were grown in a greenhouse with day/night temperature settings of 30/27° C., and supplemental balanced lighting was provided to maintain a 16-hour photoperiod. Test pots were maintained in the greenhouse until test completion.
(§4) At time of treatment, test pots were flooded to 3 cm above the soil surface, treated by application of test compounds directly to the paddy water, and then maintained at that water depth for the duration of the test. Effects of treatments on rice and weeds were visually evaluated by comparison to untreated controls after 21 days. Plant response ratings, summarized in Table D, are based on a scale of 0 to 100 where 0 is no effect and 100 is complete control. A dash (-) response means no test result.

[6] = system: ducksalad (Heteranthera limosa); test: Test D flooded paddy plant response; conditions: Flood, scale 0 to 100 (0 no effect, 100 complete control), 21 days
From the text: as §2, §3, §4

[7] = system: late watergrass (Echinochloa oryzicola); test: Test D flooded paddy plant response; conditions: Flood, scale 0 to 100 (0 no effect, 100 complete control), 21 days
From the text: as §2, §3, §4

[8] = system: rice flatsedge (Cyperus iria); test: Test D flooded paddy plant response; conditions: Flood, scale 0 to 100 (0 no effect, 100 complete control), 21 days
From the text: as §2, §3, §4

[9] = system: water-seeded rice seedlings (Oryza sativa cv. ‘Japonica—M202’); test: Test D flooded paddy plant response; conditions: Flood, scale 0 to 100 (0 no effect, 100 complete control), 21 days
From the text: as §2, §3, §4

## CCc1cc(-c2ccc(C(F)(F)F)cc2)nn1-c1c(OC(=O)OC(C)C)cnn(C)c1=O [Compound 12]
[1]; 4 g ai/ha
  Plant response rating, Horseweed: 0
[1]; 8 g ai/ha
  Plant response rating, Horseweed: 0
[1]; 31 g ai/ha
  Plant response rating, Horseweed: 0
[2]; 4 g ai/ha, Postemergence
  Plant response rating, Ragweed: 0
[2]; 31 g ai/ha, Preemergence
  Plant response rating, Ragweed: 0
[2]; Postemergence, 8 g ai/ha
  Plant response rating, Ragweed: 0
[2]; Postemergence, 31 g ai/ha
  Plant response rating, Ragweed: 0
[2]; Preemergence, 4 g ai/ha
  Plant response rating, Ragweed: 0
[3]; 4 g ai/ha, Postemergence
  Plant response rating, Field Bindweed: 0
[3]; 8 g ai/ha, Preemergence
  Plant response rating, Field Bindweed: 0
[3]; 31 g ai/ha, Preemergence
  Plant response rating, Field Bindweed: 0
[3]; Postemergence, 8 g ai/ha
  Plant response rating, Field Bindweed: 0
[3]; Postemergence, 31 g ai/ha
  Plant response rating, Field Bindweed: 0
[3]; Preemergence, 4 g ai/ha
  Plant response rating, Field Bindweed: 0
[4]; 4 g ai/ha, Postemergence
  Plant response rating, Spanishneedles: 0
[4]; 31 g ai/ha, Preemergence
  Plant response rating, Spanishneedles: 0
[4]; Postemergence, 8 g ai/ha
  Plant response rating, Spanishneedles: 0
[4]; Postemergence, 31 g ai/ha
  Plant response rating, Spanishneedles: 0

## CCc1cc(-c2ccc(Cl)cc2)nn1-c1c(O)cnn(C)c1=O [Compound 21]
[5]; 16 g ai/ha
  Plant response rating, Barnyardgrass: 0
[5]; 32 g ai/ha
  Plant response rating, Barnyardgrass: 60
[5]; 64 g ai/ha
  Plant response rating, Barnyardgrass: 100
[5]; 125 g ai/ha
  Plant response rating, Barnyardgrass: 100
[5]; 250 g ai/ha
  Plant response rating, Barnyardgrass: 100
[6]; 16 g ai/ha
  Plant response rating, Ducksalad: 0
[6]; 32 g ai/ha
  Plant response rating, Ducksalad: 0
[6]; 64 g ai/ha
  Plant response rating, Ducksalad: 0
[6]; 125 g ai/ha
  Plant response rating, Ducksalad: 0
[6]; 250 g ai/ha
  Plant response rating, Ducksalad: 0
[7]; 16 g ai/ha
  Plant response rating, Watergrass, Late: 0
[7]; 32 g ai/ha
  Plant response rating, Watergrass, Late: 30
[7]; 64 g ai/ha
  Plant response rating, Watergrass, Late: 60
[7]; 125 g ai/ha
  Plant response rating, Watergrass, Late: 100
[7]; 250 g ai/ha
  Plant response rating, Watergrass, Late: 100
[8]; 16 g ai/ha
  Plant response rating, Flatsedge, Rice: 0
[8]; 32 g ai/ha
  Plant response rating, Flatsedge, Rice: 0
[8]; 64 g ai/ha
  Plant response rating, Flatsedge, Rice: 70
[8]; 125 g ai/ha
  Plant response rating, Flatsedge, Rice: 70
[8]; 250 g ai/ha
  Plant response rating, Flatsedge, Rice: 70
[9]; 16 g ai/ha
  Plant response rating, Rice, Water Seeded: 0
[9]; 32 g ai/ha
  Plant response rating, Rice, Water Seeded: 20
[9]; 64 g ai/ha
  Plant response rating, Rice, Water Seeded: 35
[9]; 125 g ai/ha
  Plant response rating, Rice, Water Seeded: 65
[9]; 250 g ai/ha
  Plant response rating, Rice, Water Seeded: 75

## CCCc1cc(-c2ccc(Cl)cc2)nn1-c1c(O)cnn(C)c1=O [Compound 43]
[5]; 16 g ai/ha
  Plant response rating, Barnyardgrass: 0
[5]; 32 g ai/ha
  Plant response rating, Barnyardgrass: 20
[5]; 64 g ai/ha
  Plant response rating, Barnyardgrass: 60
[5]; 125 g ai/ha
  Plant response rating, Barnyardgrass: 100
[5]; 250 g ai/ha
  Plant response rating, Barnyardgrass: 100
[6]; 16 g ai/ha
  Plant response rating, Ducksalad: 0
[6]; 32 g ai/ha
  Plant response rating, Ducksalad: 0
[6]; 64 g ai/ha
  Plant response rating, Ducksalad: 0
[6]; 125 g ai/ha
  Plant response rating, Ducksalad: 0
[6]; 250 g ai/ha
  Plant response rating, Ducksalad: 0
[7]; 16 g ai/ha
  Plant response rating, Watergrass, Late: 0
[7]; 32 g ai/ha
  Plant response rating, Watergrass, Late: 0
[7]; 64 g ai/ha
  Plant response rating, Watergrass, Late: 30
[7]; 125 g ai/ha
  Plant response rating, Watergrass, Late: 65
[7]; 250 g ai/ha
  Plant response rating, Watergrass, Late: 100
[8]; 16 g ai/ha
  Plant response rating, Flatsedge, Rice: 0
[8]; 32 g ai/ha
  Plant response rating, Flatsedge, Rice: 0
[8]; 64 g ai/ha
  Plant response rating, Flatsedge, Rice: 0
[8]; 125 g ai/ha
  Plant response rating, Flatsedge, Rice: 0
[8]; 250 g ai/ha
  Plant response rating, Flatsedge, Rice: 0
[9]; 16 g ai/ha
  Plant response rating, Rice, Water Seeded: 0
[9]; 32 g ai/ha
  Plant response rating, Rice, Water Seeded: 0
[9]; 64 g ai/ha
  Plant response rating, Rice, Water Seeded: 0
[9]; 125 g ai/ha
  Plant response rating, Rice, Water Seeded: 30
[9]; 250 g ai/ha
  Plant response rating, Rice, Water Seeded: 35

— patent US20100267561A1, “HERBICIDAL PYRIDAZINONE DERIVATIVES” (priority 2007, published 2010)
